Laboratory results reported in PubChem BioAssay (NCI).
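Compound exposure: 48 hours, 5 concentrations, 96-well plates. Definition used: TGI = concentration required for complete inhibition of growth.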

Tests used:
Assay in all cases: NCI anticancer screen, dose series, 48 h
UACC-257 melanoma = tested on: UACC-257 melanoma
HCT-15 colon = tested on: HCT-15 colon
A498 renal = tested on: A498 renal
LOX IMVI melanoma = tested on: LOX IMVI melanoma
HOP-92 NSCLC = tested on: HOP-92 NSCLC
SF-539 CNS = tested on: SF-539 CNS
MOLT-4 leukemia = tested on: MOLT-4 leukemia
PC-3 prostate = tested on: PC-3 prostate
A549 NSCLC = tested on: A549 NSCLC
SR leukemia = tested on: SR leukemia
KM12 colon = tested on: KM12 colon
MDA-MB-435 = tested on: MDA-MB-435
U251 CNS = tested on: U251 CNS
DU-145 prostate = tested on: DU-145 prostate
SK-MEL-2 melanoma = tested on: SK-MEL-2 melanoma
EKVX NSCLC = tested on: EKVX NSCLC
CAKI-1 renal = tested on: CAKI-1 renal
K-562 leukemia = tested on: K-562 leukemia
RPMI-8226 leukemia = tested on: RPMI-8226 leukemia
MDA-MB-231 breast = tested on: MDA-MB-231 breast
HL-60(TB) leukemia = tested on: HL-60(TB) leukemia
NCI/ADR-RES ovarian = tested on: NCI/ADR-RES ovarian
SK-OV-3 ovarian = tested on: SK-OV-3 ovarian
HCC-2998 colon = tested on: HCC-2998 colon
OVCAR-4 ovarian = tested on: OVCAR-4 ovarian
M14 melanoma = tested on: M14 melanoma
IGROV1 ovarian = tested on: IGROV1 ovarian
UACC-62 melanoma = tested on: UACC-62 melanoma
UO-31 renal = tested on: UO-31 renal
SW-620 colon = tested on: SW-620 colon
COLO 205 colon = tested on: COLO 205 colon
NCI-H226 lung = tested on: NCI-H226 lung
HCT-116 colon = tested on: HCT-116 colon
HS 578T breast = tested on: HS 578T breast
HOP-62 NSCLC = tested on: HOP-62 NSCLC
TK-10 renal = tested on: TK-10 renal
RXF 393 renal = tested on: RXF 393 renal
786-0 renal = tested on: 786-0 renal
NCI-H23 lung = tested on: NCI-H23 lung
SK-MEL-28 melanoma = tested on: SK-MEL-28 melanoma
MCF7 breast = tested on: MCF7 breast
SF-268 CNS = tested on: SF-268 CNS
SF-295 CNS = tested on: SF-295 CNS
ACHN renal = tested on: ACHN renal
SK-MEL-5 melanoma = tested on: SK-MEL-5 melanoma
NCI-H460 lung = tested on: NCI-H460 lung
OVCAR-8 ovarian = tested on: OVCAR-8 ovarian
BT-549 breast = tested on: BT-549 breast
MALME-3M melanoma = tested on: MALME-3M melanoma
SNB-19 CNS = tested on: SNB-19 CNS
CCRF-CEM leukemia = tested on: CCRF-CEM leukemia
HT29 colon = tested on: HT29 colon
T-47D breast = tested on: T-47D breast
OVCAR-5 ovarian = tested on: OVCAR-5 ovarian
SNB-75 CNS = tested on: SNB-75 CNS
OVCAR-3 ovarian = tested on: OVCAR-3 ovarian
SN12C renal = tested on: SN12C renal
NCI-H522 lung = tested on: NCI-H522 lung

**Q.** For `Cn1c(-c2cccc([N+](=O)[O-])c2)[n+](C)c2ccccc21`, which TGI (UACC-257 melanoma) is on record?
**A.** > 100 µM

**Q.** And the TGI (HCT-15 colon)?
**A.** > 100 µM

**Q.** And the TGI (A498 renal)?
**A.** > 100 µM

**Q.** What about the TGI (LOX IMVI melanoma) of the same molecule?
**A.** > 100 µM

**Q.** What about the TGI (HOP-92 NSCLC) of the same molecule?
**A.** > 100 µM

**Q.** What about the TGI (SF-539 CNS) of the same molecule?
**A.** > 100 µM

**Q.** What about the TGI (MOLT-4 leukemia) of the same molecule?
**A.** > 100 µM

**Q.** And the TGI (PC-3 prostate)?
**A.** > 100 µM

**Q.** And the TGI (A549 NSCLC)?
**A.** > 100 µM

**Q.** What about the TGI (SR leukemia) of the same molecule?
**A.** > 100 µM

**Q.** And the TGI (KM12 colon)?
**A.** > 100 µM

**Q.** What about the TGI (MDA-MB-435) of the same molecule?
**A.** > 100 µM

**Q.** And the TGI (U251 CNS)?
**A.** > 100 µM

**Q.** And the TGI (DU-145 prostate)?
**A.** > 100 µM

**Q.** What about the TGI (SK-MEL-2 melanoma) of the same molecule?
**A.** > 100 µM

**Q.** What about the TGI (EKVX NSCLC) of the same molecule?
**A.** > 100 µM

**Q.** And the TGI (CAKI-1 renal)?
**A.** > 100 µM

**Q.** And the TGI (K-562 leukemia)?
**A.** > 100 µM

**Q.** What about the TGI (RPMI-8226 leukemia) of the same molecule?
**A.** > 100 µM

**Q.** And the TGI (MDA-MB-231 breast)?
**A.** > 100 µM

**Q.** And the TGI (HL-60(TB) leukemia)?
**A.** > 100 µM

**Q.** What about the TGI (NCI/ADR-RES ovarian) of the same molecule?
**A.** > 100 µM

**Q.** What about the TGI (SK-OV-3 ovarian) of the same molecule?
**A.** > 100 µM

**Q.** What about the TGI (HCC-2998 colon) of the same molecule?
**A.** > 100 µM

**Q.** What about the TGI (OVCAR-4 ovarian) of the same molecule?
**A.** > 100 µM

**Q.** What about the TGI (M14 melanoma) of the same molecule?
**A.** > 100 µM

**Q.** And the TGI (IGROV1 ovarian)?
**A.** > 100 µM

**Q.** What about the TGI (UACC-62 melanoma) of the same molecule?
**A.** > 100 µM

**Q.** What about the TGI (UO-31 renal) of the same molecule?
**A.** > 100 µM

**Q.** And the TGI (SW-620 colon)?
**A.** > 100 µM

**Q.** And the TGI (COLO 205 colon)?
**A.** > 100 µM

**Q.** What about the TGI (NCI-H226 lung) of the same molecule?
**A.** > 100 µM

**Q.** What about the TGI (HCT-116 colon) of the same molecule?
**A.** > 100 µM

**Q.** What about the TGI (HS 578T breast) of the same molecule?
**A.** > 100 µM

**Q.** What about the TGI (HOP-62 NSCLC) of the same molecule?
**A.** > 100 µM

**Q.** What about the TGI (TK-10 renal) of the same molecule?
**A.** > 100 µM

**Q.** What about the TGI (RXF 393 renal) of the same molecule?
**A.** > 100 µM

**Q.** And the TGI (786-0 renal)?
**A.** > 100 µM

**Q.** And the TGI (NCI-H23 lung)?
**A.** > 100 µM

**Q.** What about the TGI (SK-MEL-28 melanoma) of the same molecule?
**A.** > 100 µM

**Q.** What about the TGI (MCF7 breast) of the same molecule?
**A.** > 100 µM

**Q.** What about the TGI (SF-268 CNS) of the same molecule?
**A.** > 100 µM

**Q.** And the TGI (SF-295 CNS)?
**A.** > 100 µM

**Q.** And the TGI (ACHN renal)?
**A.** > 100 µM

**Q.** And the TGI (SK-MEL-5 melanoma)?
**A.** > 100 µM

**Q.** And the TGI (NCI-H460 lung)?
**A.** > 100 µM

**Q.** What about the TGI (OVCAR-8 ovarian) of the same molecule?
**A.** > 100 µM

**Q.** And the TGI (BT-549 breast)?
**A.** > 100 µM

**Q.** And the TGI (MALME-3M melanoma)?
**A.** > 100 µM

**Q.** And the TGI (SNB-19 CNS)?
**A.** > 100 µM

**Q.** What about the TGI (CCRF-CEM leukemia) of the same molecule?
**A.** > 100 µM

**Q.** And the TGI (HT29 colon)?
**A.** > 100 µM

**Q.** What about the TGI (T-47D breast) of the same molecule?
**A.** > 100 µM

**Q.** And the TGI (OVCAR-5 ovarian)?
**A.** > 100 µM

**Q.** What about the TGI (SNB-75 CNS) of the same molecule?
**A.** > 100 µM

**Q.** What about the TGI (OVCAR-3 ovarian) of the same molecule?
**A.** > 100 µM

**Q.** What does the source list for `COc1cc(/C=C/C(=O)C2(C(=O)/C=C/c3cc(OC)c(OC)c(OC)c3)CCCCC2)cc(OC)c1OC`?
**A.** TGI (UACC-257 melanoma): > 100 µM; TGI (HCT-15 colon): > 100 µM; TGI (A498 renal): > 100 µM; TGI (LOX IMVI melanoma): > 100 µM; TGI (HOP-92 NSCLC): 68 µM; TGI (SF-539 CNS): 47.8 µM; TGI (PC-3 prostate): > 100 µM; TGI (A549 NSCLC): > 100 µM; TGI (SR leukemia): > 100 µM; TGI (KM12 colon): 75.9 µM; TGI (MDA-MB-435): 42.5 µM; TGI (U251 CNS): > 100 µM; TGI (DU-145 prostate): > 100 µM; TGI (SK-MEL-2 melanoma): > 100 µM; TGI (SN12C renal): > 100 µM; TGI (EKVX NSCLC): > 100 µM; TGI (NCI-H522 lung): 96.9 µM; TGI (CAKI-1 renal): > 100 µM; TGI (K-562 leukemia): > 100 µM; TGI (RPMI-8226 leukemia): > 100 µM; TGI (MDA-MB-231 breast): > 100 µM; TGI (HL-60(TB) leukemia): > 100 µM; TGI (NCI/ADR-RES ovarian): > 100 µM; TGI (SK-OV-3 ovarian): > 100 µM; TGI (HCC-2998 colon): > 100 µM; TGI (OVCAR-4 ovarian): > 100 µM; TGI (M14 melanoma): 81.7 µM; TGI (IGROV1 ovarian): > 100 µM; TGI (UACC-62 melanoma): 53.8 µM; TGI (UO-31 renal): > 100 µM; TGI (SW-620 colon): > 100 µM; TGI (COLO 205 colon): > 100 µM; TGI (NCI-H226 lung): > 100 µM; TGI (HCT-116 colon): > 100 µM; TGI (HS 578T breast): 89.8 µM; TGI (HOP-62 NSCLC): > 100 µM; TGI (TK-10 renal): > 100 µM; TGI (786-0 renal): > 100 µM; TGI (NCI-H23 lung): > 100 µM; TGI (SK-MEL-28 melanoma): > 100 µM; TGI (MCF7 breast): > 100 µM; TGI (SF-268 CNS): > 100 µM; TGI (SF-295 CNS): 89 µM; TGI (ACHN renal): > 100 µM; TGI (SK-MEL-5 melanoma): > 100 µM; TGI (NCI-H460 lung): > 100 µM; TGI (OVCAR-8 ovarian): 65.2 µM; TGI (BT-549 breast): 91.9 µM; TGI (MALME-3M melanoma): > 100 µM; TGI (SNB-19 CNS): > 100 µM; TGI (CCRF-CEM leukemia): > 100 µM; TGI (HT29 colon): > 100 µM; TGI (T-47D breast): > 100 µM; TGI (OVCAR-5 ovarian): > 100 µM; TGI (SNB-75 CNS): > 100 µM; TGI (OVCAR-3 ovarian): 58.4 µM
